Results published in US12344606B2, “Next-generation modulators of stimulator of interferon genes (STING)” (RYVU THERAPEUTICS S.A., priority 2019, dated 2025).

Columns and labels:
human STING = human STING (Homo sapiens, UniProt Q86WV6); assay: Fluorescence Thermal Shift assay (hSTING FTS binding assay); settings: STING 0.1 mg/ml, 20 min preincubation, SyproOrange
Procedure: Compounds of the present invention were tested for binding to human STING in Fluorescence Thermal Shift assay. STING was preincubated with the compounds for 20 minutes in 50 mM Hepes, 150 mM NaCl, pH 7.5 in 16 μl volume, following by adding 4 μl of SyproOrange dye dilution (ThermoFisher, cat no. S-6651). Final STING concentration was 0.1 mg/ml. Thermal unfolding was performed in Real-Time PCR QuantStudio 6 Flex System (Applied Biosystems), from 25 to 99° C., with continuous ramp mode and ramp rate 0.033° C./s. The data were analyzed using Protein Thermal Shift Software (ThermoFisher).

[1] = system: interferon regulatory factor (IRF) pathway in THP-1 dual cells; assay: THP-1 Dual reporter assay, IRF pathway (luciferase); assay type: cell-based; settings: Homo sapiens, THP1-Dual; 18 h stimulation, luminescence
Procedure: (§1) Compounds of the present invention were tested for their activity using THP-1 dual cells (Invivogen, cat no. thpd-nfis) allowing for simultaneous study of NF-κB pathway and the interferon regulatory factor (IRF) pathway. THP-1 dual cells contain luciferase reporter gene under the control of an ISG54 (interferon-stimulated gene) minimal promoter in conjunction with five interferon-stimulated response elements and a secreted embryonic alkaline phosphatase reporter gene under the control an IFN (interferon)-β minimal promoter fused to five copies of the NF-κB consensus transcriptional response element with three copies of the c-Rel binding site. Following 18 h of stimulation with STING agonist, medium was collected and transferred onto fresh cell culture plate. To verify activity of the IRF pathway, luminescence activity was measured with standard laboratory plate reader immediately after addition 10 μl of the medium to 50 μl (or 40 μl) of luminescence reagent (Invivogen, cat. No. rep-qlc2). To verify activity of NF-κB pathway, 20 μl (or 10 μl) of the medium was mixed with 80 μl of a detection medium (Invivogen, cat. No. rep-qb2) and incubated for 2 hours (or 1 hour) at 37° C. in a humidified atmosphere containing 5% CO2. Next, absorbance at 630 nm (or 655 nm) was recorded using standard laboratory plate reader.

[2] = system: NF-κB pathway in THP-1 dual cells; assay: THP-1 Dual reporter assay, NF-κB pathway (SEAP); assay type: cell-based; settings: Homo sapiens, THP1-Dual; 18 h stimulation, absorbance; read-out: THP1 Dual EC50 (μM) NFkB
Procedure: as §1

human STING, sequence (Q86WV6 whole entry H232R): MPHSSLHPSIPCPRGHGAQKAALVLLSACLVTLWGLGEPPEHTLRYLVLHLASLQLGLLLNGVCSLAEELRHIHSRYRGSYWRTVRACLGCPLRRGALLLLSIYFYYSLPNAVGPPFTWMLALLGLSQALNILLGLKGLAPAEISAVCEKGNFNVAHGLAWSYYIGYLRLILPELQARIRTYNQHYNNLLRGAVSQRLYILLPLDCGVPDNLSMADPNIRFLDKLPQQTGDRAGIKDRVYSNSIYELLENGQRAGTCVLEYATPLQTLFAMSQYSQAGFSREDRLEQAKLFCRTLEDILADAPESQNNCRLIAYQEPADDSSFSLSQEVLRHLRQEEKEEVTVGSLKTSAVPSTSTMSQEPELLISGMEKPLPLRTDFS

Row | Structure (SMILES) | hSTING FTS binding assay (ΔT C.°) (human STING) | EC50 [1] [µM] | EC50 [2] [µM]
1 | COc1cc(CN(Cc2cn(C3CC3)c3cc(F)c(F)cc3c2=O)[C@H]2CCCN(c3ccc(C)nc3)C2)ccn1 [Example 31, 1-cyclopropyl-6,7-difluoro-3-({[(2-methoxypyridin-4-yl)methyl][(3S)-1-(6-methylpyridin-3-yl)piperidin-3-yl]amino}methyl)-1,4-dihydroquinolin-4-one] | ++ (ΔTm>10° C.) | ≤ 1 | ≤ 1
2 | Cc1cc(CN(Cc2cn(C)c3ccccc3c2=O)[C@H]2CCCN(c3ccc(F)nc3)C2)ccn1 [Example 16, 3-({[(3S)-1-(6-fluoropyridin-3-yl)piperidin-3-yl][(2-methylpyridin-4-yl)methyl]amino}methyl)-1-methyl-1,4-dihydroquinolin-4-one] | + (ΔTm<10° C.) | 1 to 10 | 1 to 10
3 | COc1cc(CN(Cc2c[nH]c3ccccc3c2=O)[C@H]2CCCN(c3cccnc3)C2)ccn1 [Example 6, 3-({[(2-methoxypyridin-4-yl)methyl][(3S)-1-(pyridin-3-yl)piperidin-3-yl]amino}methyl)-1,4-dihydroquinolin-4-one] | ++ (ΔTm>10° C.) | ≤ 1 | ≤ 1
4 | COc1cc(N2CCC[C@H](N(Cc3ccnc(C)c3)Cc3cn(C)c4ccccc4c3=O)C2)ccn1 [Example 20, 3-({[(3S)-1-(2-methoxypyridin-4-yl)piperidin-3-yl][(2-methylpyridin-4-yl)methyl]amino}methyl)-1-methyl-1,4-dihydroquinolin-4-one] | + (ΔTm<10° C.) | ≥ 10 | ≥ 10
5 | Cc1ccc(N2CCC[C@H](N(Cc3ccnc(C)c3)Cc3cn(C)c4cc(N5CCNCC5=O)ccc4c3=O)C2)cn1 [Example 49, 1-methyl-3-({[(3S)-1-(6-methylpyridin-3-yl)piperidin-3-yl][(2-methylpyridin-4-yl)methyl]amino}methyl)-7-(2-oxopiperazin-1-yl)-1,4-dihydroquinolin-4-one] | + (ΔTm<10° C.) | ≥ 10 | ≥ 10
6 | Cc1cc(CN(Cc2cn(C)c3ccccc3c2=O)[C@H]2CCCN(c3cccnc3)C2)cc(C)n1 [Example 38, 3-({[(2,6-dimethylpyridin-4-yl)methyl][(3S)-1-(pyridine-3-yl)piperidin-3-yl]amino}methyl)-1-methyl-1,4-dihydroquinolin-4-one] | + (ΔTm<10° C.) | ≥ 10 | ≥ 10
7 | Cc1cc(CN(Cc2cn(C)c3ccccc3c2=O)[C@H]2CCCN(c3ccc([N+](=O)[O-])nc3)C2)ccn1 [Example 14, 1-methyl-3-({[(2-methylpyridin-4-yl)methyl][(3S)-1-(6-nitropyridin-3-yl)piperidin-3-yl]amino}methyl)-1,4-dihydroquinolin-4-one] | + (ΔTm<10° C.) | 1 to 10 | ≥ 10
8 | Cc1cc(CN(Cc2cn(C)c3ccccc3c2=O)[C@H]2CCCN(c3cccnc3[N+](=O)[O-])C2)ccn1 [Example 36, 1-methyl-3-({[(2-methylpyridin-4-yl)methyl][(3S)-1-(2-nitropyridin-3-yl)piperidin-3-yl]amino}methyl)-1,4-dihydroquinolin-4-one] | + (ΔTm<10° C.) | ≥ 10 | ≥ 10
9 | COc1cc(CN(Cc2cn(C)c3ccccc3c2=O)C2CCCN(c3cnccn3)C2)ccn1 (stereo not drawn) [Example 4, 3-({[(2-methoxypyridin-4-yl)methyl][1-(pyrazin-2-yl)piperidin-3-yl]amino}methyl)-1-methyl-1,4-dihydroquinolin-4-one] | + (ΔTm<10° C.) | 1 to 10 | 1 to 10
10 | Cc1cc(CN(Cc2c[nH]c3ccccc3c2=O)[C@H]2CCCN(c3cccnc3)C2)ccn1 [Example 35, 3-({[(2-methylpyridin-4-yl)methyl][(3S)-1-(pyridin-3-yl)piperidin-3-yl]amino}methyl)-1,4-dihydroquinolin-4-one] | ++ (ΔTm>10° C.) | ≤ 1 | 1 to 10
11 | Cc1ccc(N2CCC[C@H](N(Cc3ccnc(C)c3)Cc3cn(C4CC4)c4cc(N5CCNCC5)c(F)cc4c3=O)C2)cn1 [Example 47, 1-cyclopropyl-6-fluoro-3-({[(3S)-1-(6-methylpyridin-3-yl)piperidin-3-yl][(2-methylpyridin-4-yl)methyl]amino}methyl)-7-(piperazin-1-yl)-1,4-dihydroquinolin-4-one] | ++ (ΔTm>10° C.) | ≤ 1 | ≤ 1
12 | Cc1cc(CN(Cc2cn(C)c3ccccc3c2=O)[C@H]2CCCN(c3ccncc3Br)C2)ccn1 [Example 15, 3-({[(3S)-1-(3-bromopyridin-4-yl)piperidin-3-yl][(2-methylpyridin-4-yl)methyl]amino}methyl)-1-methyl-1,4-dihydroquinolin-4-one] | + (ΔTm<10° C.) | 1 to 10 | 1 to 10
13 | Cc1cc(CN(Cc2cn(C)c3ccccc3c2=O)[C@H]2CCCN(c3ccn(C)c(=O)c3)C2)ccn1 [Example 41, 1-methyl-3-({[(3S)-1-(1-methyl-2-oxo-1,2-dihydropyridin-4-yl)piperidin-3-yl][(2-methylpyridin-4-yl)methyl]amino}methyl)-1,4-dihydroquinolin-4-one] | + (ΔTm<10° C.) | ≥ 10 | ≥ 10
14 | CCc1cc(CN(Cc2cn(C)c3ccccc3c2=O)C2CCCN(c3cccnc3)C2)ccn1 (stereo not drawn) [Example 21, 3-({[(2-ethylpyridin-4-yl)methyl][1-(pyridin-3-yl)piperidin-3-yl]amino}methyl)-1-methyl-1,4-dihydroquinolin-4-one] | + (ΔTm<10° C.) | ≥ 10 | ≥ 10
15 | Cc1cc(CN(Cc2cn(C)c3ccccc3c2=O)[C@H]2C[C@H](F)CN(c3cccnc3)C2)ccn1 [Example 26, 3-({[(3S,5S)-5-fluoro-1-(pyridin-3-yl)piperidin-3-yl][(2-methylpyridin-4-yl)methyl]amino}methyl)-1-methyl-1,4-dihydroquinolin-4-one] | ++ (ΔTm>10° C.) | ≤ 1 | ≤ 1
16 | Cc1ccc(N2CCC[C@H](N(Cc3ccnc(C)c3)Cc3cn(C4CC4)c4cc(Cl)c(F)cc4c3=O)C2)cn1 [Example 40, 7-chloro-1-cyclopropyl-6-fluoro-3-({[(3S)-1-(6-methylpyridin-3-yl)piperidin-3-yl][(2-methylpyridin-4-yl)methyl]amino}methyl)-1,4-dihydroquinolin-4-one] | ++ (ΔTm>10° C.) | ≤ 1 | ≤ 1
17 | Cc1ccc(N2CCC[C@H](N(Cc3ccnc(C)c3)Cc3cn(C4CC4)c4[nH]c(=O)c(F)cc4c3=O)C2)cn1 [Example 43, 1-cyclopropyl-6-fluoro-7-hydroxy-3-({[(3S)-1-(6-methylpyridin-3-yl)piperidin-3-yl][(2-methylpyridin-4-yl)methyl]amino}methyl)-1,4-dihydro-1,8-naphthyridin-4-one] | ++ (ΔTm>10° C.) | ≥ 10 | ≥ 10
